Experimental data reported in patent US8778982B2, “Synergistic microbicidal compositions” (Rohm and Haas Company, priority 2007, dated 2014).
Read-outs that look alike come from different tables or passages of the source. Each block holds one molecule with its values, some of them ahead of it.

Columns and labels:
Type in all cases: cell-based
[1] = test system: Candida albicans (C. albicans—ATCC 10231); assay: Synergy test, microtiter plate high resolution MIC assay, PDB medium, yeast; conditions: for MIC: Candida albicans
Text: (§1) One measure of synergism is the industrially accepted method described by Kull, F. C.; Eisman, P. C.; Sylwestrowicz, H. D. and Mayer, R. L., in Applied Microbiology 9:538-541 (1961), using the ratio determined by the formula: Qa/QA+Qb/QB=Synergy Index(“SI”) wherein: • QA=concentration of compound A (first component) in ppm, acting alone, which produced an end point (MIC of Compound A). • Qa=concentration of compound A in ppm, in the mixture, which produced an end point. • QB=concentration of compound B (second component) in ppm, acting alone, which produced an end point (MIC of Compound B). • Qb=concentration of compound B in ppm, in the mixture, which produced an end point.
(§2) When the sum of Qa/QA and Qb/QB is greater than one, antagonism is indicated. […] The lower the SI, the greater is the synergy shown by that particular mixture. The minimum inhibitory concentration (MIC) of a microbicide is the lowest concentration tested under a specific set of conditions that prevents the growth of the tested microorganisms.
(§3) Synergy tests were conducted using standard microtiter plate assays with media designed for optimal growth of the test microorganism. Minimal salt medium supplemented with 0.2% glucose and 0.1% yeast extract (M9GY medium) was used for testing bacteria; Potato Dextrose Broth (PDB medium) was used for testing yeast and mold. In this method, a wide range of combinations of microbicides and other personal care raw materials was tested by conducting high resolution MIC assays in the presence of various concentrations of CMIT/MIT, MIT, or BIT. High resolution MICs were determined by adding varying amounts of microbicide to one column of a microtitre plate and doing subsequent […] dilutions using an automated liquid handling system to obtain a series of endpoints ranging from 2 ppm to 10,000 ppm active ingredient.
(§4) The synergy of the combinations of the present invention was determined against a bacterium, Escherichia coli (E. coli—ATCC #8739), a yeast, Candida albicans (C. albicans—ATCC 10231), and a mold, Aspergillus niger (A. niger—ATCC 16404). The bacteria were used at a concentration of about 5×10^6 bacteria per mL and the yeast and mold at 5×10^5 fungi per mL. These microorganisms are representative of natural contaminants in many consumer and industrial applications. […] (yeast and mold) or 30° C. (bacteria).

[2] = test system: Escherichia coli (E. coli—ATCC #8739); assay: Synergy test, microtiter plate high resolution MIC assay, M9GY medium, bacterium; conditions: for MIC: Escherichia coli
Text: as §1, §2, §3, §4

[3] = test system: Aspergillus niger (A. niger—ATCC 16404); assay: Synergy test, microtiter plate high resolution MIC assay, PDB medium, mold; conditions: for MIC: Aspergillus niger
Text: as §1, §2, §3, §4

[4] = ATCC10231, 24 h, read-out: MIC of the component acting alone (QA or QB)
[5] = ATCC8739, 24 h, read-out: MIC of the component acting alone (QA or QB)
[6] = ATCC16404, 72 h, read-out: MIC of the component acting alone (QA or QB)

MIC ([1]; ATCC10231, 24 h, C. albicans 10231, PDB, 1 day, 25° C., read-out: MIC of the component acting alone (QA or QB)): 3 mg/mL | MIC ([2]; ATCC8739, 48 h, E. coli 8739, M9GY, 2 days, 30° C., read-out: MIC of the component acting alone (QA or QB)): 2 mg/mL | MIC ([3]; ATCC16404, 72 h, A. niger 16404, PDB, 3 days, 25° C., read-out: MIC of the component acting alone (QA or QB)): 3 mg/mL
Structure (SMILES): CCCCCCC(O)CO (stereo not shown) [Caprylyl glycol, 1,2-octanediol]
Synergy Index (SI) = Qa/QA+Qb/QB ([1]; C. albicans 10231, PDB, 1 day): 1.00 | Synergy Index (SI) = Qa/QA+Qb/QB ([2]; E. coli 8739, M9GY, 2 days): 1.00 | Synergy Index (SI) = Qa/QA+Qb/QB ([3]; A. niger 16404, PDB, 3 days): 1.00

MIC of the component acting alone (Qa or Qb with the other component at 0) ([1]; C. albicans 10231, PDB, 6 days): 10000 ppm | MIC of the component acting alone (Qa or Qb with the other component at 0) ([2]; E. coli 8739, M9GY, 2 days): 3000 ppm | MIC of the component acting alone (Qa or Qb with the other component at 0) ([3]; A. niger 16404, PDB, 3 days): 2000 ppm
Structure (SMILES): CCCCC(CC)COCC(O)CO (stereo not shown) [Ehylhexylglycerin]
SI (synergy index) ([1]; C. albicans 10231, PDB, 6 days): 1.00 | SI (synergy index) ([2]; E. coli 8739, M9GY, 2 days): 1.00 | SI (synergy index) ([3]; A. niger 16404, PDB, 3 days): 1.00

MIC [1, 4]: 2 mg/mL | MIC [2, 5]: 3 mg/mL | MIC [3, 6]: 2 mg/mL
Structure (SMILES): CCCCC(CC)COCC(O)CO (stereo not shown) [Ethylhexylglycerin, 3-[(2-ethylhexyl)oxy]-1,2propanediol]
Synergy Index (SI) = Qa/QA+Qb/QB ([1]; C. albicans 10231, PDB, 1 day): 1.00 | SI ([1]; C. albicans 10231 - PDB (6 days), A = MIT, B = Ethylhexylglycerin): 1.00 | Qb ([1]; C. albicans 10231 - PDB (6 days), A = MIT, B = Ethylhexylglycerin, B alone where Qa = 0): 2000 ppm | Synergy Index (SI) = Qa/QA+Qb/QB ([2]; E. coli 8739, M9GY, 1 day): 1.00 | SI ([2]; E. coli 8739 - M9GY (6 days), A = MIT, B = Ethylhexylglycerin): 1.00 | Qb ([2]; E. coli 8739 - M9GY (6 days), A = MIT, B = Ethylhexylglycerin, B alone where Qa = 0): 3000 ppm | Synergy Index (SI) = Qa/QA+Qb/QB ([3]; A. niger 16404, PDB, 3 days): 1.00 | SI ([3]; A. niger 16404 - PDB (10 days), A = MIT, B = Ethylhexylglycerin): 1.00 | Qb ([3]; A. niger 16404 - PDB (10 days), A = MIT, B = Ethylhexylglycerin, B alone where Qa = 0): 2000 ppm

Structure (SMILES): CCCCCCCCCCCC(=O)OCC(O)CO (stereo not shown) [Glycerol monolaurate]
Synergy Index (SI) = Qa/QA+Qb/QB ([1]; C. albicans 10231, PDB, 1 day): 1.00 | SI (synergy index) ([1]; C. albicans 10231, PDB, 6 days): 1.00 | Synergy Index (SI) = Qa/QA+Qb/QB ([1]; C. albicans 10231, PDB, 6 days): 1.00 | MIC [1, 4]: 20 mg/mL | MIC ([1]; ATCC10231, 144 h, read-out: MIC of the component acting alone (QA or QB)): 20 mg/mL | MIC ([1]; ATCC10231, 144 h, read-out: MIC of the component acting alone (Qa or Qb with the other component at 0)): 20 mg/mL | SI (synergy index) ([2]; E. coli 8739, M9GY, 1 day): 1.00 | Synergy Index (SI) = Qa/QA+Qb/QB ([2]; E. coli 8739, M9GY, 1 day): 1.00 | MIC [2, 5]: 20 mg/mL | MIC ([2]; ATCC8739, 24 h, read-out: MIC of the component acting alone (Qa or Qb with the other component at 0)): 20 mg/mL | Synergy Index (SI) = Qa/QA+Qb/QB ([3]; A. niger 16404, PDB, 3 days): 1.00 | SI (synergy index) ([3]; A. niger 16404, PDB, 10 days): 1.00 | Synergy Index (SI) = Qa/QA+Qb/QB ([3]; A. niger 16404, PDB, 10 days): 1.00 | MIC [3, 6]: 20 mg/mL | MIC ([3]; ATCC16404, 240 h, read-out: MIC of the component acting alone (QA or QB)): 20 mg/mL | MIC ([3]; ATCC16404, 240 h, read-out: MIC of the component acting alone (Qa or Qb with the other component at 0)): 20 mg/mL
